Measured values from patent US10259810B2, “N-sulfonylated pyrazolo[3,4-b]pyridin-6-carboxamides and method of use” (AbbVie S.à.r.l., priority 2015, dated 2019).

Legend:
ΔF508-CFTR [1] = molecular target: T1, ΔF508-CFTR (Homo sapiens, UniProt P13569, DEL508-508); experiment: CFTR cell surface levels using HRP-tagged ΔF508-CFTR expressing CFBE cells, in the presence of a co-corrector; format: cell-based
T1 construct: host or cells: CFBE41o-, doxycycline-inducible
Summary of the method: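 Chemiluminescent read-out of surface HRP (15 min, dark) after PBS washes. Activity is normalized as 100×(sample−DMSO)/(3 μM co-corrector alone−DMSO).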

ΔF508-CFTR [2] = molecular target: T1, ΔF508-CFTR; experiment: CFTR cell surface levels using HRP-tagged ΔF508-CFTR expressing CFBE cells, intrinsic corrector capacity; format: cell-based; parameters: % Activation: concentration or dose not given beside the values
Summary of the method: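 Surface ΔF508-CFTR was measured as HRP chemiluminescence from an extracellular-loop-4 tag, expressed as percent activity between DMSO and a […] corrector control.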

[3] = HRP-tagged ΔF508-CFTR CFBE cells, in the presence of 3 μM co-corrector
[4] = HRP-tagged ΔF508-CFTR CFBE cells, in the presence of 3 μM co-corrector, read-out: EC50
[5] = HRP-tagged ΔF508-CFTR expressing CFBE41o- cells, compound alone (intrinsic corrector capacity), 20 hours at 33° C.
[6] = HRP-tagged ΔF508-CFTR expressing CFBE41o- cells, compound alone (intrinsic corrector capacity), 20 hours at 33° C., read-out: EC50

T1 sequence (P13569 with tags, fused parts or gaps DEL508-508): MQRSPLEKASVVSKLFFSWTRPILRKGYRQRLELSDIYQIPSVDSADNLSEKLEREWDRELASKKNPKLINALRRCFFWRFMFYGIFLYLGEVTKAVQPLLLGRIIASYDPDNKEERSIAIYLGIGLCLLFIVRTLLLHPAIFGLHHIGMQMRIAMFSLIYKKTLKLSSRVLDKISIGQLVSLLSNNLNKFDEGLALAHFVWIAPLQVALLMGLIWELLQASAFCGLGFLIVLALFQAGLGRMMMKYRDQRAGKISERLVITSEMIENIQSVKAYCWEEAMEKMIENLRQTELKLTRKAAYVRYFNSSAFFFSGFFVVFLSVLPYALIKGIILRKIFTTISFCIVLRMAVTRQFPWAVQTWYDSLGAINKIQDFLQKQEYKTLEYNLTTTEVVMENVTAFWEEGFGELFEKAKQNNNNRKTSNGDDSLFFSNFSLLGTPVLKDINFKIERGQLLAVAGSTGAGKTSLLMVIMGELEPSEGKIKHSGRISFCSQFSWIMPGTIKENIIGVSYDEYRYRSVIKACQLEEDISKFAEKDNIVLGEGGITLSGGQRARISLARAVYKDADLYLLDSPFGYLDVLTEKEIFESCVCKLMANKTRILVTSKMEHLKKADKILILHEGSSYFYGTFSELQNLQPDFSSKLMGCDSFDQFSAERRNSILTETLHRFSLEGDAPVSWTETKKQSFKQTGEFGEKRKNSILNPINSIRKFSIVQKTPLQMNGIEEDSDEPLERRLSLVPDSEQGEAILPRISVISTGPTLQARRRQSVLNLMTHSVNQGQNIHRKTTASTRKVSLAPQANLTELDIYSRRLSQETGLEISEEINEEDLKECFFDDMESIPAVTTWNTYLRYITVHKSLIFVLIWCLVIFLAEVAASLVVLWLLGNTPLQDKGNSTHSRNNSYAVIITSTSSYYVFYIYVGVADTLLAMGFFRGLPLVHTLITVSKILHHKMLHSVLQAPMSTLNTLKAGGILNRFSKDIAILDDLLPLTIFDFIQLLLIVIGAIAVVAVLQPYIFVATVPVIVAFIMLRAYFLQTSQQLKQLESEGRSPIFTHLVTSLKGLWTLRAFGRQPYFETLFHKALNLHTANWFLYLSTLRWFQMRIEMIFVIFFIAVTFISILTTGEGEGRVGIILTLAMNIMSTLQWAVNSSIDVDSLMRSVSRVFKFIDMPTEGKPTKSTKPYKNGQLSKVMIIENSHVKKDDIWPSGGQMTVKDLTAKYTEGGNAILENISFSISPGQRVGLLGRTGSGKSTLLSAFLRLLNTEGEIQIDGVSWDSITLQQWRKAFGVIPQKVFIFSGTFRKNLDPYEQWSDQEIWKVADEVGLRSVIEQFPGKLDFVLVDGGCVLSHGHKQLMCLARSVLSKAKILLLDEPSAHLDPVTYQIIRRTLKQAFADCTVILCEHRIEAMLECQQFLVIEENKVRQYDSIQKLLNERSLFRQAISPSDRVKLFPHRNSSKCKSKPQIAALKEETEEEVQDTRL

SMILES | % Activation (ΔF508-CFTR [1]; [3]) [%] | EC50 (ΔF508-CFTR [1]; [4]) [nM] | % Activation (ΔF508-CFTR [2]; [5]) [%] | EC50 (ΔF508-CFTR [2]; [6]) [nM] | EC50 (ΔF508-CFTR [1]) [nM] | EC50 (ΔF508-CFTR [2]) [nM]
CN(C)S(=O)(=O)NC(=O)c1cc(N2CCC(CCN3CCOCC3)CC2)c2c(C3CCC3)nn(C3CCCCC3)c2n1 [Compound 425, 3-cyclobutyl-1-cyclohexyl-N-(dimethylsulfamoyl)-4-{4-[2-(morpholin-4-yl)ethyl]piperidin-1-yl}-1H-pyrazolo[3,4-b]pyridine-6-carboxamide] | 462.85 | 166 | 280.2 | 277 |  | 
CN(C)S(=O)(=O)NC(=O)c1cc(N2CCC(N3CCCCC3)CC2)c2c(C3CCC3)nn(-c3ccccc3)c2n1 [Compound 426, 4-([1,4′-bipiperidin]-1′-yl)-3-cyclobutyl-N-(dimethylsulfamoyl)-1-phenyl-1H-pyrazolo[3,4-b]pyridine-6-carboxamide] | 385.3 |  | 143.7 |  | 82 | 302
COCC1CCN(c2cc(C(=O)NS(C)(=O)=O)nc3c2c(C2CCC2)nn3-c2ccnc(C)c2)CC1 [Compound 430, 3-cyclobutyl-N-(methanesulfonyl)-4-[4-(methoxymethyl)piperidin-1-yl]-1-(2-methylpyridin-4-yl)-1H-pyrazolo[3,4-b]pyridine-6-carboxamide] | 383.7 | 89.9 | 170.05 | 231 |  | 
CCCN(C)S(=O)(=O)NC(=O)c1cc(N2CCC(N3CCOCC3)CC2)c2c(C3CCC3)nn(-c3ccccc3)c2n1 [Compound 432, 3-cyclobutyl-N-[methyl(propyl)sulfamoyl]-4-[4-(morpholin-4-yl)piperidin-1-yl]-1-phenyl-1H-pyrazolo[3,4-b]pyridine-6-carboxamide] | 514.83 | 65.9 | 243.6 | 119 |  | 
CCOC(=O)N1CCC(NS(=O)(=O)NC(=O)c2cc(N3CCC(N4CCOCC4)CC3)c3c(C4CCC4)nn(-c4ccccc4)c3n2)CC1 [Compound 433, ethyl 4-[({3-cyclobutyl-4-[4-(morpholin-4-yl)piperidin-1-yl]-1-phenyl-1H-pyrazolo[3,4-b]pyridine-6-carbonyl}sulfamoyl)amino]piperidine-1-carboxylate] | 563.8 | 49 | 361.5 | 96.5 |  | 
O=C(NS(=O)(=O)N1CCC(F)CC1)c1cc(N2CCC(N3CCOCC3)CC2)c2c(C3CCC3)nn(-c3ccccc3)c2n1 [Compound 434, 3-cyclobutyl-N-(4-fluoropiperidine-1-sulfonyl)-4-[4-(morpholin-4-yl)piperidin-1-yl]-1-phenyl-1H-pyrazolo[3,4-b]pyridine-6-carboxamide] | 470.37 | 59.5 | 245.2 | 57.7 |  | 
CC1(S(=O)(=O)NC(=O)c2cc(N3CCC(N4CCOCC4)CC3)c3c(C4CCC4)nn(-c4ccccc4)c3n2)CC1 [Compound 435, 3-cyclobutyl-N-(1-methylcyclopropane-1-sulfonyl)-4-[4-(morpholin-4-yl)piperidin-1-yl]-1-phenyl-1H-pyrazolo[3,4-b]pyridine-6-carboxamide] | 474.8 | 82.8 | 269.9 | 136 |  | 
O=C(NS(=O)(=O)C1CC1)c1cc(N2CCC(N3CCOCC3)CC2)c2c(C3CCC3)nn(-c3ccccc3)c2n1 [Compound 436, 3-cyclobutyl-N-(cyclopropanesulfonyl)-4-[4-(morpholin-4-yl)piperidin-1-yl]-1-phenyl-1H-pyrazolo[3,4-b]pyridine-6-carboxamide] | 568.6 | 71.1 | 393.3 | 344 |  | 
CCS(=O)(=O)NC(=O)c1cc(N2CCC(N3CCOCC3)CC2)c2c(C3CCC3)nn(-c3ccccc3)c2n1 [Compound 437, 3-cyclobutyl-N-(ethanesulfonyl)-4-[4-(morpholin-4-yl)piperidin-1-yl]-1-phenyl-1H-pyrazolo[3,4-b]pyridine-6-carboxamide] | 563.64 |  | 353.8 |  |  | 
COCCS(=O)(=O)NC(=O)c1cc(N2CCC(N3CCOCC3)CC2)c2c(C3CCC3)nn(-c3ccccc3)c2n1 [Compound 438, 3-cyclobutyl-N-(2-methoxyethanesulfonyl)-4-[4-(morpholin-4-yl)piperidin-1-yl]-1-phenyl-1H-pyrazolo[3,4-b]pyridine-6-carboxamide] | 541.5 | 380 | 337 | 392 |  | 
COC[C@@H]1CCCN1C1CCN(S(=O)(=O)NC(=O)c2cc(N3CCC(N4CCOCC4)CC3)c3c(C4CCC4)nn(-c4ccccc4)c3n2)CC1 [Compound 439, 3-cyclobutyl-N-{4-[(2S)-2-(methoxymethyl)pyrrolidin-1-yl]piperidine-1-sulfonyl}-4-[4-(morpholin-4-yl)piperidin-1-yl]-1-phenyl-1H-pyrazolo[3,4-b]pyridine-6-carboxamide] | 374.6 | 381 | 166.8 | 550 |  | 
CC(C)Oc1nn(C2CCCCC2)c2nc(C(=O)NS(=O)(=O)N(C)C)cc(-c3ccc(CN4CCN(C)CC4)cc3)c12 [Compound 442, 1-cyclohexyl-N-(dimethylsulfamoyl)-4-{4-[(4-methylpiperazin-1-yl)methyl]phenyl}-3-[(propan-2-yl)oxy]-1H-pyrazolo[3,4-b]pyridine-6-carboxamide] | 342 | 1110 | 146.8 | 307 |  | 
CC(C)Oc1nn(C2CCCCC2)c2nc(C(=O)NS(=O)(=O)N(C)C)cc(-c3ccc(CN4CCCC4)cc3)c12 [Compound 444, 1-cyclohexyl-N-(dimethylsulfamoyl)-3-[(propan-2-yl)oxy]-4-{4-[(pyrrolidin-1-yl)methyl]phenyl}-1H-pyrazolo[3,4-b]pyridine-6-carboxamide] | 361.3 | 235 | 162.5 | 345 |  | 
CS(=O)(=O)NC(=O)c1cc(N2CCC(N3CCCCC3)CC2)c2c(C3CCC3)nn(-c3ccc(F)cc3)c2n1 [Compound 450, 4-([1,4'-bipiperidin]-1'-yl)-3-cyclobutyl-1-(4-fluorophenyl)-N-(methanesulfonyl)-1H-pyrazolo[3,4-b]pyridine-6-carboxamide] | 443.25 | 246 | 253.5 | 617 |  | 
O=C(NS(=O)(=O)C1CCOC1)c1cc(N2CCC(N3CCCCC3)CC2)c2c(C3CCC3)nn(-c3ccc(F)cc3)c2n1 (stereo not drawn) [Compound 451, 4-([1,4'-bipiperidin]-1'-yl)-3-cyclobutyl-1-(4-fluorophenyl)-N-(oxolane-3-sulfonyl)-1H-pyrazolo[3,4-b]pyridine-6-carboxamide] | 391 | 2100 | 184.1 | 1700 |  | 
O=C(NS(=O)(=O)C1CCOC1)c1cc(N2CCC(CCN3CCOCC3)CC2)c2c(C3CCC3)nn(-c3ccc(F)cc3)c2n1 (stereo not drawn) [Compound 452, 3-cyclobutyl-1-(4-fluorophenyl)-4-{4-[2-(morpholin-4-yl)ethyl]piperidin-1-yl}-N-(oxolane-3-sulfonyl)-1H-pyrazolo[3,4-b]pyridine-6-carboxamide] | 478.25 | 942 | 239.8 | 408 |  | 
O=C(NS(=O)(=O)N1CCC(N2CCCCC2)CC1)c1cc(N2CCC(N3CCOCC3)CC2)c2c(C3CCC3)nn(-c3ccccc3)c2n1 [Compound 453, N-([1,4'-bipiperidine]-1'-sulfonyl)-3-cyclobutyl-4-[4-(morpholin-4-yl)piperidin-1-yl]-1-phenyl-1H-pyrazolo[3,4-b]pyridine-6-carboxamide] | 385.1 | 319 | 149.3 | 403 |  | 
O=C(NS(=O)(=O)CCCN1CCOCC1)c1cc(N2CCC(N3CCCCC3)CC2)c2c(C3CCC3)nn(-c3ccccc3)c2n1 [Compound 454, 4-([1,4′-bipiperidin]-1′-yl)-3-cyclobutyl-N-[3-(morpholin-4-yl)propane-1-sulfonyl]-1-phenyl-1H-pyrazolo[3,4-b]pyridine-6-carboxamide] | 430.2 |  | 168.1 |  | 639 | 1670
CCOC(=O)N1CCC(NS(=O)(=O)NC(=O)c2cc(N3CCC(CN4CCCC4)CC3)c3c(C4CCC4)nn(-c4ccccc4)c3n2)CC1 [Compound 457, ethyl 4-{[(3-cyclobutyl-1-phenyl-4-{4-[(pyrrolidin-1-yl)methyl]piperidin-1-yl}-1H-pyrazolo[3,4-b]pyridine-6-carbonyl)sulfamoyl]amino}piperidine-1-carboxylate] | 508 | 139 | 272.2 | 128 |  | 
COC[C@H]1CCCN1C1CCN(S(=O)(=O)NC(=O)c2cc(N3CCC(CN4CCCC4)CC3)c3c(C4CCC4)nn(-c4ccccc4)c3n2)CC1 [Compound 458, 3-cyclobutyl-N-{4-[(2R)-2-(methoxymethyl)pyrrolidin-1-yl]piperidine-1-sulfonyl}-1-phenyl-4-{4-[(pyrrolidin-1-yl)methyl]piperidin-1-yl}-1H-pyrazolo[3,4-b]pyridine-6-carboxamide] | 282.8 | 920 | 124.4 | 794 |  | 
